{"source": "patent US20100197944A1", "about": "“DOCETAXEL PROCESS AND POLYMORPHS” (DR. REDDY'S LABORATORIES LIMITED, priority 2007, published 2010)", "origin": "cited, not measured here", "settings": "compared with anhydrous docetaxel", "data": [{"smiles": "CC(=O)O[C@@]12CO[C@@H]1C[C@H](O)[C@@]1(C)C(=O)[C@H](O)C3=C(C)[C@@H](OC(=O)[C@H](O)[C@@H](NC(=O)OC(C)(C)C)c4ccccc4)C[C@@](O)([C@@H](OC(=O)c4ccccc4)[C@H]21)C3(C)C", "note": "[Docetaxel trihydrate, 4-acetoxy-2α-benzoyloxy-5β,20-epoxy-1,7β,10β-trihydroxy-9-oxo-tax-11-en-13-α-yl-(2R,3S)-3-tert-butoxycarbonylamino-2-hydroxy-3-phenylpropionate trihydrate]", "values": [{"measurement": "Stability relative to the anhydrous product", "result": "substantially greater stability"}]}]}
